Several values for one entry are separate records, joined by “and”; a condition that tells them apart may be missing. Equal entries are not always repeated. Inconclusive results and toxic doses are left out. The calls were made as follows: active = survival T/C of 150% or more; inactive = T/C below 125% in these data.
Tested on: P388 leukemia ip, CD2F1 mice, survival T/C
Assay: NCI In Vivo Anticancer Drug Screen. Data for tumor model P388 Leukemia (intraperitoneal) in CD2F1 (CDF1) mice
Details: endpoint: median survival time, higher = longer survival
Outline: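 Mice carrying the transplanted tumor received test compound or vehicle. Survival was recorded in each group, and the value is the treated-group measurement divided by that of the vehicle-treated control group.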

[1] = dose: 12.5 mg/kg/injection, schedule: Q01DX009 (ip), vehicle: saline with Tween-80
[2] = dose: 25.0 mg/kg/injection, schedule: Q01DX009 (ip), vehicle: saline with Tween-80
[3] = dose: 50.0 mg/kg/injection, schedule: Q01DX005 (ip), vehicle: saline with Tween-80
[4] = dose: 100.0 mg/kg/injection, schedule: Q01DX005 (ip), vehicle: saline with Tween-80
[5] = dose: 200.0 mg/kg/injection, schedule: Q01DX005 (ip), vehicle: saline with Tween-80
[6] = dose: 50.0 mg/kg/injection, schedule: Q01DX009 (ip), vehicle: saline
[7] = dose: 100.0 mg/kg/injection, schedule: Q01DX009 (ip), vehicle: saline
[8] = dose: 50.0 mg/kg/injection, schedule: Q01DX005 (ip), vehicle: Klucel (hydroxypropylcellulose) (HPC)
[9] = dose: 100.0 mg/kg/injection, schedule: Q01DX005 (ip), vehicle: Klucel (hydroxypropylcellulose) (HPC)
[10] = dose: 200.0 mg/kg/injection, schedule: Q01DX005 (ip), vehicle: Klucel (hydroxypropylcellulose) (HPC)
[11] = dose: 60.0 mg/kg/injection, schedule: Q01DX005 (ip), vehicle: Klucel (hydroxypropylcellulose) (HPC)
[12] = dose: 120.0 mg/kg/injection, schedule: Q01DX005 (ip), vehicle: Klucel (hydroxypropylcellulose) (HPC)
[13] = dose: 240.0 mg/kg/injection, schedule: Q01DX005 (ip), vehicle: Klucel (hydroxypropylcellulose) (HPC)
[14] = dose: 50.0 mg/kg/injection, schedule: Q01DX009 (ip), vehicle: saline with Tween-80

Measured: T/C

Fc1ccc(NC(=S)S)cc1
inactive: dose: 6.25 mg/kg/injection, schedule: Q01DX009 (ip), vehicle: saline with Tween-80 104 % of control | dose: 6.25 mg/kg/injection, schedule: Q04DX003 (ip), vehicle: saline 100 % of control | [1] 104 % of control | dose: 12.5 mg/kg/injection, schedule: Q04DX003 (ip), vehicle: saline 115 % of control | [2] 104 % of control | dose: 25.0 mg/kg/injection, schedule: Q04DX003 (ip), vehicle: saline 100 % of control

COC(=O)C12CCC(C(=O)OC)(CC1)n1c(=O)n(-c3ccccc3)c(=O)n12
inactive: [3] 102 % of control | [4] 102 % of control | [5] 102 % of control

Cc1ccc(CNc2ccc(I)cc2)cc1
inactive: dose: 100.0 mg/kg/injection, schedule: Q01DX009 (ip), vehicle: other 104 % of control | dose: 200.0 mg/kg/injection, schedule: Q01DX009 (ip), vehicle: other 95 % of control | dose: 400.0 mg/kg/injection, schedule: Q01DX009 (ip), vehicle: other 95 % of control

C[N+](C)(C)NC1OC(C(O)S(=O)(=O)O)C(OCc2ccccc2)C(OCc2ccccc2)C1O (stereo unspecified)
inactive: [6] 104 % of control | [7] 106 % of control

O=C1CC(c2ccccc2)C(=O)N1CN1CCOCC1 (stereo unspecified)
inactive: [8] 110 % of control | [9] 97 % of control | [10] 97 % of control

Clc1nc(Cl)nc(Nc2ccc(-c3cc4ccc(-c5ncc[nH]5)cc4[nH]3)cc2)n1
inactive: [11] 100 % of control | [12] 100 % of control | [13] 105 % of control

CSCS(=O)CC(C)C (stereo unspecified)
inactive: dose: 50.0 mg/kg/injection, schedule: Q01DX005 (ip), vehicle: water 104 % of control | dose: 100.0 mg/kg/injection, schedule: Q01DX005 (ip), vehicle: water 102 % of control | dose: 200.0 mg/kg/injection, schedule: Q01DX005 (ip), vehicle: water 105 % of control

CC(=O)Oc1c[nH]c(=O)[nH]c1=O
inactive: dose: 25.0 mg/kg/injection, schedule: Q01DX009 (ip), vehicle: distilled water + Tween-80 103 % of control and 97 % of control | dose: 50.0 mg/kg/injection, schedule: Q01DX009 (ip), vehicle: distilled water + Tween-80 100 % of control and 97 % of control | dose: 100.0 mg/kg/injection, schedule: Q01DX009 (ip), vehicle: distilled water + Tween-80 102 % of control and 103 % of control and 112 % of control | dose: 200.0 mg/kg/injection, schedule: Q01DX009 (ip), vehicle: distilled water + Tween-80 109 % of control and 114 % of control and 119 % of control | dose: 400.0 mg/kg/injection, schedule: Q01DX009 (ip), vehicle: distilled water + Tween-80 103 % of control and 123 % of control

Cc1ccc(N(CN2C(=O)CCC2=O)CS(=O)(=O)c2ccc(Cl)cc2)cc1
inactive: dose: 15.0 mg/kg/injection, schedule: Q01DX005 (ip), vehicle: Klucel (hydroxypropylcellulose) (HPC) 107 % of control | dose: 30.0 mg/kg/injection, schedule: Q01DX005 (ip), vehicle: Klucel (hydroxypropylcellulose) (HPC) 91 % of control | [11] 93 % of control and 95 % of control | [13] 90 % of control

CCOC(=O)c1ccc(NC(=O)Nc2cccc3c(O)cccc23)cc1
inactive: [11] 89 % of control | [12] 96 % of control | [13] 88 % of control

O=C(O)c1c[nH]c2cc(OCCc3ccc(F)cc3)ccc2c1=O
inactive: [6] 107 % of control | [7] 101 % of control | dose: 200.0 mg/kg/injection, schedule: Q01DX009 (ip), vehicle: saline 101 % of control

C(=C\C1N=C1c1ccccc1)/c1ccc2ccccc2c1 (stereo unspecified)
inactive: dose: 50.0 mg/kg/injection, schedule: Q04DX002 (ip), vehicle: suspension in saline 99 % of control | dose: 100.0 mg/kg/injection, schedule: Q04DX002 (ip), vehicle: suspension in saline 97 % of control | dose: 200.0 mg/kg/injection, schedule: Q04DX002 (ip), vehicle: suspension in saline 99 % of control

COC(=O)CCCCCCCCCCCCCCCCC(=O)O
inactive: dose: 50.0 mg/kg/injection, schedule: Q01DX009 (ip), vehicle: Klucel (hydroxypropylcellulose) (HPC) 99 % of control | dose: 100.0 mg/kg/injection, schedule: Q01DX009 (ip), vehicle: Klucel (hydroxypropylcellulose) (HPC) 94 % of control | dose: 200.0 mg/kg/injection, schedule: Q01DX009 (ip), vehicle: Klucel (hydroxypropylcellulose) (HPC) 93 % of control

CNc1nc(N)nc2c1nc(Cl)n2C1OC(CO)C(O)C1O (stereo unspecified)
inactive: [3] 102 % of control | [4] 101 % of control | [5] 95 % of control

Clc1ccc(CN2COc3c(ccc4ccccc34)C2)cc1
inactive: dose: 100.0 mg/kg/injection, schedule: Q04DX003 (ip), vehicle: Klucel (hydroxypropylcellulose) (HPC) 103 % of control | dose: 200.0 mg/kg/injection, schedule: Q04DX003 (ip), vehicle: Klucel (hydroxypropylcellulose) (HPC) 94 % of control | dose: 400.0 mg/kg/injection, schedule: Q04DX003 (ip), vehicle: Klucel (hydroxypropylcellulose) (HPC) 94 % of control

Fc1ccc(-c2nc3cc(-c4ccccc4)[nH]n3c2N=Nc2ccccc2)cc1
inactive: [3] 105 % of control | [4] 103 % of control | [5] 108 % of control

COc1ccc(SS(=O)c2ccc(OC)cc2)cc1 (stereo unspecified)
inactive: dose: 100.0 mg/kg/injection, schedule: Q04DX002 (ip), vehicle: saline with Tween-80 100 % of control | dose: 200.0 mg/kg/injection, schedule: Q04DX002 (ip), vehicle: saline with Tween-80 102 % of control | dose: 400.0 mg/kg/injection, schedule: Q04DX002 (ip), vehicle: saline with Tween-80 102 % of control

O=C(c1ccccc1)c1cnc2nc(-c3ccccc3)c(-c3ccccc3)nn12
inactive: dose: 12.5 mg/kg/injection, schedule: Q01DX005 (ip), vehicle: saline with Tween-80 89 % of control | dose: 25.0 mg/kg/injection, schedule: Q01DX005 (ip), vehicle: saline with Tween-80 90 % of control | [3] 93 % of control and 94 % of control | [4] 101 % of control | [5] 102 % of control

COc1ccc(/C=C/C(=O)c2ccc3c(c2)OCO3)cc1OC
inactive: [1] 98 % of control | [2] 98 % of control and 100 % of control | [14] 99 % of control and 101 % of control | dose: 100.0 mg/kg/injection, schedule: Q01DX009 (ip), vehicle: saline with Tween-80 100 % of control and 94 % of control | dose: 200.0 mg/kg/injection, schedule: Q01DX009 (ip), vehicle: saline with Tween-80 103 % of control and 93 % of control | dose: 200.0 mg/kg/injection, schedule: Q04DX003 (ip), vehicle: saline with Tween-80 109 % of control | dose: 300.0 mg/kg/injection, schedule: Q01DX009 (ip), vehicle: saline with Tween-80 93 % of control | dose: 400.0 mg/kg/injection, schedule: Q01DX009 (ip), vehicle: saline with Tween-80 100 % of control | dose: 400.0 mg/kg/injection, schedule: Q04DX003 (ip), vehicle: saline with Tween-80 109 % of control

Clc1ccc(N=C2N=C(Nc3ccc(Cl)cn3)c3ccccc32)nc1
inactive: [1] 86 % of control | [2] 89 % of control | [14] 87 % of control and 95 % of control

COc1cc(NC(C)=O)c(OC)cc1N
inactive: dose: 25.0 mg/kg/injection, schedule: Q04DX002 (ip), vehicle: saline 104 % of control | dose: 50.0 mg/kg/injection, schedule: Q04DX002 (ip), vehicle: saline 98 % of control

COc1ccccc1/C=C/C(=O)c1ccccc(=O)c1O
inactive: dose: 25.0 mg/kg/injection, schedule: Q01DX005 (ip), vehicle: Klucel (hydroxypropylcellulose) (HPC) 101 % of control | [8] 104 % of control | [9] 100 % of control | [10] 109 % of control

S=c1ncn(C2CCCC2)c(=S)[nH]1
inactive: [8] 93 % of control | [9] 103 % of control | [10] 100 % of control

CCCCNc1ncnc2[nH]ncc12
inactive: [1] 100 % of control | dose: 12.5 mg/kg/injection, schedule: Q04DX003 (ip), vehicle: saline with Tween-80 90 % of control | [2] 110 % of control | dose: 25.0 mg/kg/injection, schedule: Q04DX003 (ip), vehicle: saline with Tween-80 95 % of control | [14] 105 % of control | dose: 50.0 mg/kg/injection, schedule: Q04DX003 (ip), vehicle: saline with Tween-80 90 % of control

COc1ccc(-n2cc(-c3ccc(Cl)cc3)c3c(N)ncnc32)cc1
inactive: dose: 60.0 mg/kg/injection, schedule: Q01DX005 (ip), vehicle: saline with Tween-80 105 % of control | dose: 120.0 mg/kg/injection, schedule: Q01DX005 (ip), vehicle: saline with Tween-80 94 % of control | dose: 240.0 mg/kg/injection, schedule: Q01DX005 (ip), vehicle: saline with Tween-80 86 % of control

From PubChem BioAssay AID330 (DTP/NCI, 2004)
